Measured values from patent US8765677B2 (priority 2009, dated 2014).
Where “and” joins values, the source holds several entries; their conditions need not be identical. Identical values can stand only once. Where a SMILES comes first, the peptide text is derived from it.

What was measured:
[1] = molecular target: recombinant Cav1.2 α1C (L-type) channels (α/α2δ1/β3) (Oryctolagus cuniculus, UniProt P15381); format: cell-based, rabbit
[2] = molecular target: recombinant Cav1.3 α1D (L-type) channels (α/α2δ1/β3) (Rattus norvegicus, UniProt P27732); format: cell-based
[3] = molecular target: recombinant Cav2.1 α1A (P/Q-type) channels (α/α2δ1/β3) (Oryctolagus cuniculus, UniProt P27884); assay: cell-based; design: species or system rabbit; conditions: read-out: inhibition of Cav2.1 channels
[4] = molecular target: recombinant N-type (Cav2.2) VGCCs α1B-b/α2δ1/β3 (Rattus norvegicus, UniProt Q02294); assay: cell-based; format: cell-based
recombinant N-type (Cav2.2) VGCCs α1B-b/α2δ1/β3, sequence (Q02294 whole entry, looked up): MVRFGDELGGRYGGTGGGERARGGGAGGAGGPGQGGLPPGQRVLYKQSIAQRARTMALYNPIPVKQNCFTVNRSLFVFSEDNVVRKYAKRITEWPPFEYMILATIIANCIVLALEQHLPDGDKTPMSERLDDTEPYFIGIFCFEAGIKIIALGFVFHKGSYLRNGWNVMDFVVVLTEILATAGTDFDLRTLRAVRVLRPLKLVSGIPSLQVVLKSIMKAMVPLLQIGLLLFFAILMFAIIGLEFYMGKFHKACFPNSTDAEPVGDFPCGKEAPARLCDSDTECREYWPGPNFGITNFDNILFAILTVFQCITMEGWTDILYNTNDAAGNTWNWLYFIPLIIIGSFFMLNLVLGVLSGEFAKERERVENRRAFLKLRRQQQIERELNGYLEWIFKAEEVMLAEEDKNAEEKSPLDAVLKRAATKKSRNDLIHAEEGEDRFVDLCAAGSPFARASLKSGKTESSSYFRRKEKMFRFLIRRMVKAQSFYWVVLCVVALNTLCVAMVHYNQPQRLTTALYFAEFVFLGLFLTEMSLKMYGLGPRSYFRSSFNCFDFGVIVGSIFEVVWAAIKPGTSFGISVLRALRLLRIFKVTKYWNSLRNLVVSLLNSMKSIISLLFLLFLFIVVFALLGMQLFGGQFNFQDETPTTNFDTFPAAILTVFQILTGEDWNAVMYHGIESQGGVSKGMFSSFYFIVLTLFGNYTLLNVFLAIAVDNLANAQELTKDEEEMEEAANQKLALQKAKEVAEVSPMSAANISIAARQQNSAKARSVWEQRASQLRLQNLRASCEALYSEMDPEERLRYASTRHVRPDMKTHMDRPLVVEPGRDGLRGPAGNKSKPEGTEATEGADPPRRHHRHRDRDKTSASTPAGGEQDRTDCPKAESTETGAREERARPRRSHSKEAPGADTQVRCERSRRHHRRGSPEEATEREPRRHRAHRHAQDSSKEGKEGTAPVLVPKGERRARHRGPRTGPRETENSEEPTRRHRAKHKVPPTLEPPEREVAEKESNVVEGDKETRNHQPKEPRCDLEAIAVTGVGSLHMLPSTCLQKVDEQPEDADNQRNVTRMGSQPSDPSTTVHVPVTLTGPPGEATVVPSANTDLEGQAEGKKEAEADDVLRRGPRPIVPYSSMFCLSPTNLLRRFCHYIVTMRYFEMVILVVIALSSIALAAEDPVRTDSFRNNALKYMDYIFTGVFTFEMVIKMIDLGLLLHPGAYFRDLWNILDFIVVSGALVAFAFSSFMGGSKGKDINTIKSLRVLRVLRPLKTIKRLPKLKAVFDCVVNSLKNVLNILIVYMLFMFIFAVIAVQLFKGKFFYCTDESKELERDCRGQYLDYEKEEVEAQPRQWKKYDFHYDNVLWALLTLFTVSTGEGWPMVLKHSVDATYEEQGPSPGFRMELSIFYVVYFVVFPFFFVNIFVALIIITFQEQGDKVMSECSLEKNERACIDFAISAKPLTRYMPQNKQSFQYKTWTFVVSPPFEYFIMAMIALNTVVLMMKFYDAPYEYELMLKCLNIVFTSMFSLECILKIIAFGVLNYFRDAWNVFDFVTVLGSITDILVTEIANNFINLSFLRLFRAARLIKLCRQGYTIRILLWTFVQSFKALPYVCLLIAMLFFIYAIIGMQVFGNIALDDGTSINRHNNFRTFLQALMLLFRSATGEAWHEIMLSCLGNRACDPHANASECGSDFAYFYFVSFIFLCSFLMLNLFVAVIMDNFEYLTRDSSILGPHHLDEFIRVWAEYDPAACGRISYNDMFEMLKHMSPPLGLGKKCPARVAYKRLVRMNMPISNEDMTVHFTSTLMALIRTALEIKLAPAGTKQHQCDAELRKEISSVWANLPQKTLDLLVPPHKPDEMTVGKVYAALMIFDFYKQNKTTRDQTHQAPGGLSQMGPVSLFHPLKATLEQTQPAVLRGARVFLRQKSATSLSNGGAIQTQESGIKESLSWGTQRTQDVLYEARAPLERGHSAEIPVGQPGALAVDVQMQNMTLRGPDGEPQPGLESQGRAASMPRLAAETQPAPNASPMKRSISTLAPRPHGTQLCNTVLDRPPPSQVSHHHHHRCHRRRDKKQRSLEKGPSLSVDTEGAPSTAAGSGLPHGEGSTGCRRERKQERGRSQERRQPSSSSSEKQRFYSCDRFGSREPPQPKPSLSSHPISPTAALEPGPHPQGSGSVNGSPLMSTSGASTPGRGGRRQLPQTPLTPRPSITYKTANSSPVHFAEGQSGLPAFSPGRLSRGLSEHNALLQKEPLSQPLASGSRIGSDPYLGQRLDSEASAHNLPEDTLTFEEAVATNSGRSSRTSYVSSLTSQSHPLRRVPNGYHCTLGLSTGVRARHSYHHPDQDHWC

[5] = system: recombinant N-type (Cav2.2) VGCCs α1B-b/β3; format: cell-based, rat
[6] = molecular target: recombinant Cav2.3 α1E (R-type) channels (α/α2δ1/β3) (Rattus norvegicus, UniProt Q07652); format: cell-based
recombinant Cav2.3 α1E (R-type) channels (α/α2δ1/β3), sequence (Q07652 whole entry, looked up): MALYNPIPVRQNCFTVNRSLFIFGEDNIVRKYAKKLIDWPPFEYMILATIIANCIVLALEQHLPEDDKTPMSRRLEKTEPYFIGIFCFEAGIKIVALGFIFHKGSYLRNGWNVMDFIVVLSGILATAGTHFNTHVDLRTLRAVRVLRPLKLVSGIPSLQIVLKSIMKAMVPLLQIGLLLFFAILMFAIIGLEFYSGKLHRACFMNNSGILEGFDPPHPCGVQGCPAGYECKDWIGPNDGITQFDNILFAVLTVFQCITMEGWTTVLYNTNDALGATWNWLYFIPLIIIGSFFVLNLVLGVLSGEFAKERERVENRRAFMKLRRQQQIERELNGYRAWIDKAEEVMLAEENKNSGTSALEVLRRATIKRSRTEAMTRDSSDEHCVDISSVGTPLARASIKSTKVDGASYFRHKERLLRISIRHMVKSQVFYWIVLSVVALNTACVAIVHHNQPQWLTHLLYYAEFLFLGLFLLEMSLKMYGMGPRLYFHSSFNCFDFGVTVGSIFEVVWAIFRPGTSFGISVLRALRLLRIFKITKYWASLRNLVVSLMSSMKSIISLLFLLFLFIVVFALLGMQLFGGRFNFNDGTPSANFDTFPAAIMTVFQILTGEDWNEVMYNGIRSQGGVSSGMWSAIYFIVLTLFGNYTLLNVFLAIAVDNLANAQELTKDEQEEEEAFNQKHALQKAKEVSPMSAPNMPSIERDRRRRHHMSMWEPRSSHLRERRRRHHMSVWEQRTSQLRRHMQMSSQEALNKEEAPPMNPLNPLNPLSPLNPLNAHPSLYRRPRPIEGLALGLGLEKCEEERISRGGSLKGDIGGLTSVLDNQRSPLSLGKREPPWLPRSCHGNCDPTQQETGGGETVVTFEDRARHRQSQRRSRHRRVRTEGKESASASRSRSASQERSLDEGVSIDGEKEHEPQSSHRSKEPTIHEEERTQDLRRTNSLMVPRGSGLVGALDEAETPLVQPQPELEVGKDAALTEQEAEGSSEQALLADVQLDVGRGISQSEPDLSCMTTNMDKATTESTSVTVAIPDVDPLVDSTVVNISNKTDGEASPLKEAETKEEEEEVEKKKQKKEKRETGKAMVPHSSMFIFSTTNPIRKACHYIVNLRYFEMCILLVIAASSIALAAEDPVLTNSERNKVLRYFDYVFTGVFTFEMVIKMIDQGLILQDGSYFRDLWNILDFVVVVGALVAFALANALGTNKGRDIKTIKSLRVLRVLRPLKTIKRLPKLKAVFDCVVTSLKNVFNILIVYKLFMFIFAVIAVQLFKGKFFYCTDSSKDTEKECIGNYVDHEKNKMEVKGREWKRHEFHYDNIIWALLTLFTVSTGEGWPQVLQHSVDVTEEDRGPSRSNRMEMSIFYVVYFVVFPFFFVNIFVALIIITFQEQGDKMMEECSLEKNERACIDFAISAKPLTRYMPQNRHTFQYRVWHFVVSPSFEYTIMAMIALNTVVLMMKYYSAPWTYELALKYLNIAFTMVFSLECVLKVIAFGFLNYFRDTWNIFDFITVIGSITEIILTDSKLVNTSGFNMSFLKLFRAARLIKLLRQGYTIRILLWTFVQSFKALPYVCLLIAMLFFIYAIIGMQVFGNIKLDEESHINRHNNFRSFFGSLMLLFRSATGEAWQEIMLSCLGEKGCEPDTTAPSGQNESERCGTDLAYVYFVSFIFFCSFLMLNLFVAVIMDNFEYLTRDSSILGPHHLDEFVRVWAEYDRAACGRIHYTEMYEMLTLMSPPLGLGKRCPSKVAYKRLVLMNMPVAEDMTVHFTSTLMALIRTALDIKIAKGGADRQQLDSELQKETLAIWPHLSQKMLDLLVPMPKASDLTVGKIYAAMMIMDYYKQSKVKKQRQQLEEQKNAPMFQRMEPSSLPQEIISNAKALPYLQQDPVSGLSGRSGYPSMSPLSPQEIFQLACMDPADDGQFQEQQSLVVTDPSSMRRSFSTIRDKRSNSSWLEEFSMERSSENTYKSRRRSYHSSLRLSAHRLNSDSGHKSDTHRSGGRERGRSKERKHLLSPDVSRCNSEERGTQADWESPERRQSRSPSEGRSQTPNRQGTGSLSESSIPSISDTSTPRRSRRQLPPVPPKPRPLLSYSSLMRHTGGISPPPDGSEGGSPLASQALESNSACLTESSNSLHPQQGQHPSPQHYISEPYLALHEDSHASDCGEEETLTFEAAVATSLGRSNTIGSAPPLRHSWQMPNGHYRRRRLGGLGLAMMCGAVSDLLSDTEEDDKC

`CC(C)C[C@@H]1NC(=O)[C@H](CCCNC(=N)N)NC(=O)[C@@H]2CSSC[C@@H]3NC(=O)[C@H](CO)NC(=O)[C@H](C)NC(=O)CNC(=O)[C@H](CCCCN)NC(=O)CNC(=O)[C@H](CCCCN)NC(=O)[C@@H](N)CSSC[C@H](NC(=O)[C@H](CSSC[C@@H](C(N)=O)NC(=O)[C@H](CCCNC(=N)N)NC(=O)CNC1=O)NC(=O)[C@H](CC(=O)O)NC(=O)[C@H](Cc1ccc(O)cc1)NC(=O)[C@H](CO)NC(=O)[C@H]([C@@H](C)O)NC(=O)[C@H](CCCNC(=N)N)NC(=O)[C@H](CCCNC(=N)N)NC3=O)C(=O)N[C@@H]([C@@H](C)O)C(=O)NCC(=O)N[C@@H](CO)C(=O)N2` [CVIF] (HELM PEPTIDE1{C.K.G.K.G.A.S.C.R.R.T.S.Y.D.C.C.T.G.S.C.R.L.G.R.C.[am]}$PEPTIDE1,PEPTIDE1,1:R3-16:R3|PEPTIDE1,PEPTIDE1,8:R3-20:R3|PEPTIDE1,PEPTIDE1,15:R3-25:R3$$$V2.0) was tested, and the “effect on Cav1.2 channels” value [1] was “neither peptide had any effect”, the “effect on Cav1.3 channels” value [2] was “neither peptide had any effect” and the inhibition at 3 µM [3] was < 10%. The Hill slope [4] was 0.51±0.04, the “inhibition of depolarization-activated Ba2+ currents (IBa)” value [4] was “potently inhibited” and the IC50 [5] was 0.1 ± 0.07 nM. The “effect on Cav2.3 channels” value [6] was “neither peptide had any effect”.
For `CSCC[C@@H]1NC(=O)[C@H]([C@@H](C)O)NC(=O)[C@H](CCCCN)NC(=O)[C@H](CCCNC(=N)N)NC(=O)[C@@H]2CSSC[C@@H]3NC(=O)[C@H](CO)NC(=O)CNC(=O)[C@H](CCCNC(=N)N)NC(=O)[C@H](CSSC[C@H](N)C(=O)N[C@@H](CCCCN)C(=O)NCC(=O)N[C@@H](CCCCN)C(=O)NCC(=O)N[C@@H](C)C(=O)N[C@@H](CO)C(=O)N2)NC(=O)[C@H](CSSC[C@@H](C(N)=O)NC(=O)[C@H](CCCNC(=N)N)NC(=O)CNC(=O)[C@H](CO)NC(=O)[C@H](CCCNC(=N)N)NC3=O)NC(=O)[C@H](CC(=O)O)NC(=O)[C@H](Cc2ccc(O)cc2)NC1=O` [CVIB, reference compound] (HELM PEPTIDE1{C.K.G.K.G.A.S.C.R.K.T.M.Y.D.C.C.R.G.S.C.R.S.G.R.C.[am]}$PEPTIDE1,PEPTIDE1,1:R3-16:R3|PEPTIDE1,PEPTIDE1,8:R3-20:R3|PEPTIDE1,PEPTIDE1,15:R3-25:R3$$$V2.0), the Hill slope [4] was 0.47±0.03, the IC50 [4] was 12 ± 2.3 nM and the IC50 [5] was 1.6 ± 0.6 nM.
`C[C@@H]1NC(=O)CNC(=O)[C@H](CCCCN)NC(=O)CNC(=O)[C@H](CCCCN)NC(=O)[C@@H](N)CSSC[C@@H]2NC(=O)[C@@H]3CSSC[C@@H](C(N)=O)NC(=O)[C@H](CCCNC(=N)N)NC(=O)CNC(=O)[C@H](CO)NC(=O)[C@H](CCCNC(=N)N)NC(=O)[C@H](CSSC[C@H](NC(=O)[C@H](CO)NC1=O)C(=O)N[C@@H](CCCNC(=N)N)C(=O)N[C@@H](CCCNC(=N)N)C(=O)N[C@@H]([C@@H](C)O)C(=O)N[C@@H](CO)C(=O)N[C@@H](Cc1ccc(O)cc1)C(=O)N[C@@H](CC(=O)O)C(=O)N3)NC(=O)[C@H](CO)NC(=O)CNC(=O)[C@H]([C@@H](C)O)NC2=O` [CVIE, CKGKGASCRRTSYDCCTGSCRSGRC] was tested, and the “effect on Cav1.2 channels” value [1] was “neither peptide had any effect”, the “effect on Cav1.3 channels” value [2] was “neither peptide had any effect” and the inhibition at 3 µM [3] was < 10%. For the same compound, the Hill slope [4] was 0.45±0.03, the IC50 [4] was 2.6 ± 0.5 nM and the “inhibition of depolarization-activated Ba2+ currents (IBa)” value [4] was “potently inhibited”. For the same compound, the “time constant of block (τon)” value [4] was 31.5 ± 2.4 s and 38.5 ± 2.8 s, the IC50 [5] was 0.12 ± 0.05 nM and the “effect on Cav2.3 channels” value [6] was “neither peptide had any effect”.
